From patent US20150010928A1, “MEANS AND METHODS FOR ASSESSING AN ENDOCRINE DISEASE OR DISORDER” (priority 2012, published 2015)
Marks after values point to notes of the source that are not given here.

System: male rats
Test: Plasma metabolite profiling (GC-MS, LC-MS, SPE-LC-MS) in male rats dosed once daily over 28 days (OECD 407)
Type: in vivo, rat
Conditions: high dose; for Glycochenodeoxycholic acid / Mannose: Table 15c; for Alanine, ratio versus control / Androstenedione, ratio versus control / Glycine, ratio versus control / Heptadecanoic acid (C17:0), ratio versus control / Testosterone, ratio versus control / Threonine, ratio versus control / Uric acid, ratio versus control / alpha-Tocopherol, ratio versus control / Cholesterol, ratio versus control: male rats, plasma
Procedure, shortened: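 Polar and lipid fractions profiled by GC-MS and LC-MS/MRM, steroids by online SPE-LC-MS; pool-normalized data compared to controls by Welch test as treatment ratios and p-values.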

C[C@@H]1CC2=CC(=O)CC[C@@H]2[C@H]2CC[C@@]3(C)[C@@H](CC[C@]3(C)O)[C@@H]21 [Mibolerone]
Glycochenodeoxycholic acid (m7, male rats): 1.31
Mannose (m7, male rats): 1.41 *
3,4-Dihydroxyphenylacetic acid (DOPAC) (m7, male rats, Table 15d): 0.83 *
18-Hydroxy-11-deoxycorticosterone (m7, male rats, Table 15d): 0.83 *
Glycerol phosphate, lipid fraction (m7, male rats, Table 15d): 0.08 *
Homovanillic acid (HVA) (m7, male rats, Table 15d): 0.5 *
Kynurenic acid (m7, male rats, Table 15d): 0.73 *
Lysophosphatidylcholine (C18:1) (m7, male rats, Table 15d): 0.53 *
Lysophosphatidylethanolamine (C22:5) (m7, male rats, Table 15d): 0.54 *
Phosphate, lipid fraction (m7, male rats, Table 15d): 0.32 *
Phosphatidylcholine (C18:0,C18:1) (m7, male rats, Table 15d): 0.19 *
Sphingomyelin (d18:1, C16:0) (m7, male rats, Table 15d): 0.12 *
Sphingomyelin (d18:1,C23:0) (m7, male rats, Table 15d): 0.07 *
Sphingomyelin (d18:1,C24:0) (m7, male rats, Table 15d): 0.1 *
Sphingomyelin (d18:2,C18:0) (m7, male rats, Table 15d): 0.17 *
TAG No 02 (m7, male rats, Table 15d): 0.34 *
Taurocholic acid (m7, male rats, Table 15d): 1.11
myo-Inositol, lipid fraction (m7, male rats, Table 15d): 0.08 *
Glycochenodeoxycholic acid (m14, male rats): 2.14 *
Mannose (m14, male rats): 1.08 *
3,4-Dihydroxyphenylacetic acid (DOPAC) (m14, male rats, Table 15d): 0.96
18-Hydroxy-11-deoxycorticosterone (m14, male rats, Table 15d): 0.93
Glycerol phosphate, lipid fraction (m14, male rats, Table 15d): 0.35 *
Homovanillic acid (HVA) (m14, male rats, Table 15d): 0.69 *
Kynurenic acid (m14, male rats, Table 15d): 0.5
Lysophosphatidylcholine (C18:1) (m14, male rats, Table 15d): 0.81 *
Lysophosphatidylethanolamine (C22:5) (m14, male rats, Table 15d): 0.87
Phosphate, lipid fraction (m14, male rats, Table 15d): 0.62 *
Phosphatidylcholine (C18:0,C18:1) (m14, male rats, Table 15d): 0.61 *
Sphingomyelin (d18:1, C16:0) (m14, male rats, Table 15d): 0.37 *
Sphingomyelin (d18:1,C23:0) (m14, male rats, Table 15d): 0.53 *
Sphingomyelin (d18:1,C24:0) (m14, male rats, Table 15d): 0.63 *
Sphingomyelin (d18:2,C18:0) (m14, male rats, Table 15d): 0.3 *
TAG No 02 (m14, male rats, Table 15d): 0.24 *
Taurocholic acid (m14, male rats, Table 15d): 0.62 *
myo-Inositol, lipid fraction (m14, male rats, Table 15d): 0.29 *
Glycochenodeoxycholic acid (m28, male rats): 5.73 *
Mannose (m28, male rats): 1.07 *
3,4-Dihydroxyphenylacetic acid (DOPAC) (m28, male rats, Table 15d): 0.79 *
18-Hydroxy-11-deoxycorticosterone (m28, male rats, Table 15d): 0.63 *
Glycerol phosphate, lipid fraction (m28, male rats, Table 15d): 0.7
Homovanillic acid (HVA) (m28, male rats, Table 15d): 0.6 *
Kynurenic acid (m28, male rats, Table 15d): 0.54 *
Lysophosphatidylcholine (C18:1) (m28, male rats, Table 15d): 0.91 *
Lysophosphatidylethanolamine (C22:5) (m28, male rats, Table 15d): 0.85 *
Phosphate, lipid fraction (m28, male rats, Table 15d): 0.81 *
Phosphatidylcholine (C18:0,C18:1) (m28, male rats, Table 15d): 1.1
Sphingomyelin (d18:1, C16:0) (m28, male rats, Table 15d): 0.51 *
Sphingomyelin (d18:1,C23:0) (m28, male rats, Table 15d): 1.09
Sphingomyelin (d18:1,C24:0) (m28, male rats, Table 15d): 1.01
Sphingomyelin (d18:2,C18:0) (m28, male rats, Table 15d): 0.33 *
TAG No 02 (m28, male rats, Table 15d): 0.23 *
Taurocholic acid (m28, male rats, Table 15d): 0.75 *
myo-Inositol, lipid fraction (m28, male rats, Table 15d): 0.5 *
Alanine, ratio versus control (day 7): 0.72 *
Androstenedione, ratio versus control (day 7): 0.05 *
Glycine, ratio versus control (day 7): 0.86 *
Heptadecanoic acid (C17:0), ratio versus control (day 7): 0.37 *
Testosterone, ratio versus control (day 7): 0.07 *
Threonine, ratio versus control (day 7): 0.76 *
Uric acid, ratio versus control (day 7): 0.66 *
alpha-Tocopherol, ratio versus control (day 7): 0.07 *
Alanine, ratio versus control (day 14): 0.93 *
Androstenedione, ratio versus control (day 14): 0.96^
Cholesterol, ratio versus control (day 14): 0.27 *
Glycine, ratio versus control (day 14): 0.86^
Heptadecanoic acid (C17:0), ratio versus control (day 14): 0.57 *
Testosterone, ratio versus control (day 14): 0.68 *
Threonine, ratio versus control (day 14): 1.02^
Uric acid, ratio versus control (day 14): 0.7 *
alpha-Tocopherol, ratio versus control (day 14): 0.33 *
Alanine, ratio versus control (day 28): 1.14^
Androstenedione, ratio versus control (day 28): 0.46 *
Cholesterol, ratio versus control (day 28): 0.52 *
Glycine, ratio versus control (day 28): 0.72 *
Heptadecanoic acid (C17:0), ratio versus control (day 28): 0.82 *
Testosterone, ratio versus control (day 28): 0.26 *
Threonine, ratio versus control (day 28): 1.04^
Uric acid, ratio versus control (day 28): 0.5 *
alpha-Tocopherol, ratio versus control (day 28): 0.64 *

C[C@]12C=CC3=C4CCC(=O)C=C4CCC3C1CC[C@@H]2O (some centres unmarked) [Trenbolone]
Mannose (m7, male rats): 1.35 *
3,4-Dihydroxyphenylacetic acid (DOPAC) (m7, male rats, Table 16): 1.08
3,4-Dihydroxyphenylglycol (DOPEG) (m7, male rats, Table 16): 1.12
Androstenedione (m7, male rats, Table 16): 0.09 *
Citrate (m7, male rats, Table 16): 0.89 *
Glycerol, polar fraction (m7, male rats, Table 16): 0.66 *
Histamine (m7, male rats, Table 16): 1.35
Ketoleucine (m7, male rats, Table 16): 0.93
Lactate (m7, male rats, Table 16): 0.68 *
Metanephrine (m7, male rats, Table 16): 0.86
Pantothenic acid (m7, male rats, Table 16): 0.65 *
Phosphatidylcholine (C18:1,C18:2) (m7, male rats, Table 16): 0.76 *
Phosphatidylcholine No 04 (m7, male rats, Table 16): 0.44 *
TAG (C18:1,C18:2) (m7, male rats, Table 16): 0.77 *
Testosterone (m7, male rats, Table 16): 0.1 *
Tyrosine (m7, male rats, Table 16): 0.93 *
3,4-Dihydroxyphenylacetic acid (DOPAC) (m7, male rats, Table 15d): 1.08
18-Hydroxy-11-deoxycorticosterone (m7, male rats, Table 15d): 0.4
Glycerol phosphate, lipid fraction (m7, male rats, Table 15d): 0.26 *
Homovanillic acid (HVA) (m7, male rats, Table 15d): 0.6 *
Kynurenic acid (m7, male rats, Table 15d): 0.66 *
Lysophosphatidylcholine (C18:1) (m7, male rats, Table 15d): 0.89 *
Lysophosphatidylethanolamine (C22:5) (m7, male rats, Table 15d): 0.75 *
Phosphate, lipid fraction (m7, male rats, Table 15d): 0.47 *
Phosphatidylcholine (C18:0,C18:1) (m7, male rats, Table 15d): 0.62 *
Sphingomyelin (d18:1, C16:0) (m7, male rats, Table 15d): 0.23 *
Sphingomyelin (d18:1,C23:0) (m7, male rats, Table 15d): 0.25 *
Sphingomyelin (d18:1,C24:0) (m7, male rats, Table 15d): 0.37 *
Sphingomyelin (d18:2,C18:0) (m7, male rats, Table 15d): 0.24 *
TAG No 02 (m7, male rats, Table 15d): 0.57 *
myo-Inositol, lipid fraction (m7, male rats, Table 15d): 0.24 *
Cholesterol (m7, Table 14b): 0.22
Choline plasmalogen No 02 (m7, Table 14b): 0.44
Lignoceric acid (C24:0) (m7, Table 14b): 0.14
Sphingomyelin (d18:1, C16:0) (m7, Table 14b): 0.23
Sphingomyelin (d18:2, C16:0) (m7, Table 14b): 0.22
erythro-Sphingosine (d18:1) (m7, Table 14b): 0.1
Mannose (m14, male rats): 1.4 *
3,4-Dihydroxyphenylacetic acid (DOPAC) (m14, male rats, Table 16): 0.75 *
3,4-Dihydroxyphenylglycol (DOPEG) (m14, male rats, Table 16): 0.86 *
Androstenedione (m14, male rats, Table 16): 0.02 *
Citrate (m14, male rats, Table 16): 0.89 *
Glycerol, polar fraction (m14, male rats, Table 16): 0.51 *
Histamine (m14, male rats, Table 16): 1.6
Ketoleucine (m14, male rats, Table 16): 0.85 *
Lactate (m14, male rats, Table 16): 0.94
Metanephrine (m14, male rats, Table 16): 0.48 *
Pantothenic acid (m14, male rats, Table 16): 0.82 *
Phosphatidylcholine (C18:1,C18:2) (m14, male rats, Table 16): 0.74 *
Phosphatidylcholine No 04 (m14, male rats, Table 16): 0.42 *
TAG (C18:1,C18:2) (m14, male rats, Table 16): 0.45 *
Testosterone (m14, male rats, Table 16): 0.06 *
Tyrosine (m14, male rats, Table 16): 1
3,4-Dihydroxyphenylacetic acid (DOPAC) (m14, male rats, Table 15d): 0.75 *
18-Hydroxy-11-deoxycorticosterone (m14, male rats, Table 15d): 0.47 *
Glycerol phosphate, lipid fraction (m14, male rats, Table 15d): 0.24 *
Homovanillic acid (HVA) (m14, male rats, Table 15d): 0.5 *
Kynurenic acid (m14, male rats, Table 15d): 0.8 *
Lysophosphatidylcholine (C18:1) (m14, male rats, Table 15d): 0.82 *
Lysophosphatidylethanolamine (C22:5) (m14, male rats, Table 15d): 0.83 *
Phosphate, lipid fraction (m14, male rats, Table 15d): 0.44 *
Phosphatidylcholine (C18:0,C18:1) (m14, male rats, Table 15d): 0.63 *
Sphingomyelin (d18:1, C16:0) (m14, male rats, Table 15d): 0.22 *
Sphingomyelin (d18:1,C23:0) (m14, male rats, Table 15d): 0.33 *
Sphingomyelin (d18:1,C24:0) (m14, male rats, Table 15d): 0.41 *
Sphingomyelin (d18:2,C18:0) (m14, male rats, Table 15d): 0.26 *
TAG No 02 (m14, male rats, Table 15d): 0.74 *
myo-Inositol, lipid fraction (m14, male rats, Table 15d): 0.29 *
Cholesterol (m14, Table 14b): 0.22
Choline plasmalogen No 02 (m14, Table 14b): 0.52
Lignoceric acid (C24:0) (m14, Table 14b): 0.17
Sphingomyelin (d18:1, C16:0) (m14, Table 14b): 0.22
Sphingomyelin (d18:2, C16:0) (m14, Table 14b): 0.18
erythro-Sphingosine (d18:1) (m14, Table 14b): 0.06
Mannose (m28, male rats): 1.31 *
3,4-Dihydroxyphenylacetic acid (DOPAC) (m28, male rats, Table 16): 0.54 *
3,4-Dihydroxyphenylglycol (DOPEG) (m28, male rats, Table 16): 0.72 *
Androstenedione (m28, male rats, Table 16): 0.02 *
Citrate (m28, male rats, Table 16): 1.03
Glycerol, polar fraction (m28, male rats, Table 16): 0.61 *
Histamine (m28, male rats, Table 16): 0.65 *
Ketoleucine (m28, male rats, Table 16): 0.72 *
Lactate (m28, male rats, Table 16): 0.76 *
Metanephrine (m28, male rats, Table 16): 0.66 *
Pantothenic acid (m28, male rats, Table 16): 0.77 *
Phosphatidylcholine (C18:1,C18:2) (m28, male rats, Table 16): 0.96
Phosphatidylcholine No 04 (m28, male rats, Table 16): 0.81 *
TAG (C18:1,C18:2) (m28, male rats, Table 16): 1.26
Testosterone (m28, male rats, Table 16): 0.06 *
Tyrosine (m28, male rats, Table 16): 0.82 *
3,4-Dihydroxyphenylacetic acid (DOPAC) (m28, male rats, Table 15d): 0.54 *
18-Hydroxy-11-deoxycorticosterone (m28, male rats, Table 15d): 0.52 *
Glycerol phosphate, lipid fraction (m28, male rats, Table 15d): 0.61 *
Homovanillic acid (HVA) (m28, male rats, Table 15d): 0.49 *
Kynurenic acid (m28, male rats, Table 15d): 0.72 *
Lysophosphatidylcholine (C18:1) (m28, male rats, Table 15d): 0.92
Lysophosphatidylethanolamine (C22:5) (m28, male rats, Table 15d): 0.8
Phosphate, lipid fraction (m28, male rats, Table 15d): 0.66 *
Phosphatidylcholine (C18:0,C18:1) (m28, male rats, Table 15d): 0.87
Sphingomyelin (d18:1, C16:0) (m28, male rats, Table 15d): 0.35 *
Sphingomyelin (d18:1,C23:0) (m28, male rats, Table 15d): 0.55 *
Sphingomyelin (d18:1,C24:0) (m28, male rats, Table 15d): 0.54 *
Sphingomyelin (d18:2,C18:0) (m28, male rats, Table 15d): 0.35 *
TAG No 02 (m28, male rats, Table 15d): 0.51 *
myo-Inositol, lipid fraction (m28, male rats, Table 15d): 0.54 *
Cholesterol (m28, Table 14b): 0.4
Choline plasmalogen No 02 (m28, Table 14b): 0.55
Lignoceric acid (C24:0) (m28, Table 14b): 0.35
Sphingomyelin (d18:1, C16:0) (m28, Table 14b): 0.35
Sphingomyelin (d18:2, C16:0) (m28, Table 14b): 0.28
erythro-Sphingosine (d18:1) (m28, Table 14b): 0.21
